Data reported in article PMC11233931, “Remodeling tumor‐associated macrophage for anti‐cancer effects by rational design of irreversible inhibition of mitogen‐activated protein kinase‐activated protein kinase 2” (MedComm, 2024).

Legend:
Test in all cases: Eurofins kinase selectivity profile against 380 other human recombinant kinases (Table S2)
Format in all cases: biochemical
[1] = target: T1, 380 human recombinant protein kinases (Homo sapiens, UniProt P37173); settings: TGFBR2(h), read-out: Inhibition rate (%)
T1 construct: purchased Eurofins (Celle Lévescault)
Summary of the method: (§1)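 Off-target profiling: one compound assayed by a commercial provider over 380 recombinant human protein kinases at various concentrations.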

[2] = target: T2, 380 human recombinant protein kinases (Homo sapiens, UniProt P42685); settings: PTK5(h), read-out: Inhibition rate
T2 construct: purchased Eurofins (Celle Lévescault)
Summary of the method: as §1

[3] = target: T3, 380 human recombinant protein kinases (Homo sapiens, UniProt P54646); settings: AMPKα2(h), read-out: Inhibition rate
T3 construct: purchased Eurofins (Celle Lévescault)
Summary of the method: as §1

[4] = target: T4, 380 human recombinant protein kinases (Homo sapiens, UniProt Q08881); settings: Itk(h), read-out: Inhibition rate
T4 construct: purchased Eurofins (Celle Lévescault)
T4 sequence (Q08881 1-620): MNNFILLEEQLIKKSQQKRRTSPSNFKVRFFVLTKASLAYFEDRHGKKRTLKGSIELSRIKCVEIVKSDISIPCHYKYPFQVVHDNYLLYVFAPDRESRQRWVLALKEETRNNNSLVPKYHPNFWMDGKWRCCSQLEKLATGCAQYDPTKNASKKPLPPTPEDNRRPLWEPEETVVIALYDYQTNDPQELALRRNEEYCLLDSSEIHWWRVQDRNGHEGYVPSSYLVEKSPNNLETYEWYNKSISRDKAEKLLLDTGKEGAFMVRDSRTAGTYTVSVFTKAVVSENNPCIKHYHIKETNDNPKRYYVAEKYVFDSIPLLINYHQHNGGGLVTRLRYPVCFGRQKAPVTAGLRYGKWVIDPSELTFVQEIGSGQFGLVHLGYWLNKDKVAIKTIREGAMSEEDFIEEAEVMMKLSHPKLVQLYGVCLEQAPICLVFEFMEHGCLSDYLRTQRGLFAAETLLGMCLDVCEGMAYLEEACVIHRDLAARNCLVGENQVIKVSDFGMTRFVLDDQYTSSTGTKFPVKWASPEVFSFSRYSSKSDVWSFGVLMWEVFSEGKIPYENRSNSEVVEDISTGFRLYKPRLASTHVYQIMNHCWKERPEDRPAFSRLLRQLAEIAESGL
Summary of the method: as §1

[5] = target: T5, 380 human recombinant protein kinases (Homo sapiens, UniProt Q9H2K8); settings: TAO3(h), read-out: Inhibition rate (%)
T5 construct: purchased Eurofins (Celle Lévescault)
T5 sequence (Q9H2K8 1-898): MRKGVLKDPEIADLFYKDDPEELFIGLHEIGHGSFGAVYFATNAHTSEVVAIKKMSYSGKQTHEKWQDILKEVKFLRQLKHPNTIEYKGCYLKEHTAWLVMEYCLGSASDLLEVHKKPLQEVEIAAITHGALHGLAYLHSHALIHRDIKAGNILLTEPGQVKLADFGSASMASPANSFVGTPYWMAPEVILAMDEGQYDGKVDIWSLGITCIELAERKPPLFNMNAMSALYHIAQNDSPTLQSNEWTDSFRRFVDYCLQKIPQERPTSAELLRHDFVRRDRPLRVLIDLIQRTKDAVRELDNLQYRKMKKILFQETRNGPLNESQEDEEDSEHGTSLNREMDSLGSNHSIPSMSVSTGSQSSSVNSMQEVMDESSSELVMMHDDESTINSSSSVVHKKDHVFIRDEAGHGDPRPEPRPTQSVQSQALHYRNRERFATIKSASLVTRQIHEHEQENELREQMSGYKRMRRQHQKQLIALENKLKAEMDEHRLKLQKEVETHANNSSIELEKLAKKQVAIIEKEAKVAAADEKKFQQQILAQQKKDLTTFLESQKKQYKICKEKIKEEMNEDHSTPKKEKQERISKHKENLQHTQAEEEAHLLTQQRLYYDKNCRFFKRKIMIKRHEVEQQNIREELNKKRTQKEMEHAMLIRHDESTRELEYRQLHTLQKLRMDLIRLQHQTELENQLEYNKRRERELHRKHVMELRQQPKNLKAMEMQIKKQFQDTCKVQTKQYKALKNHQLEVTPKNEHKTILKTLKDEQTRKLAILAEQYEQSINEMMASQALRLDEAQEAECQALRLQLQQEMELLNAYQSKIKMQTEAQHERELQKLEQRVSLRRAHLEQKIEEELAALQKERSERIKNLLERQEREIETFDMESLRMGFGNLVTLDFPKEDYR
Summary of the method: as §1

T3 sequence (P54646 whole entry): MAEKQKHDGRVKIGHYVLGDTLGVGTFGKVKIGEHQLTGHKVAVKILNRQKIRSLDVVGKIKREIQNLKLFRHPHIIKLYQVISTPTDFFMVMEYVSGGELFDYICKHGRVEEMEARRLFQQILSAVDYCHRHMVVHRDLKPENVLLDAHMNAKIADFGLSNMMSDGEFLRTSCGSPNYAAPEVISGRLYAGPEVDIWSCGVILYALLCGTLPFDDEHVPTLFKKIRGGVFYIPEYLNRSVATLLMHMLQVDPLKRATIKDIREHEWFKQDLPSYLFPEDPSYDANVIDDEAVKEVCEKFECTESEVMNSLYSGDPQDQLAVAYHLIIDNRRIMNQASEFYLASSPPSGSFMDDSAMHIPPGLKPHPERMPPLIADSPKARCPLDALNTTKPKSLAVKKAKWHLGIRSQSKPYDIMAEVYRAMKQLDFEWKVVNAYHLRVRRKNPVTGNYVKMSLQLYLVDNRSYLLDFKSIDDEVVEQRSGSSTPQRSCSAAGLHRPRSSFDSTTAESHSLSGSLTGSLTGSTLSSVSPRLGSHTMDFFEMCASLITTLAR
T1 sequence (P37173 23-567): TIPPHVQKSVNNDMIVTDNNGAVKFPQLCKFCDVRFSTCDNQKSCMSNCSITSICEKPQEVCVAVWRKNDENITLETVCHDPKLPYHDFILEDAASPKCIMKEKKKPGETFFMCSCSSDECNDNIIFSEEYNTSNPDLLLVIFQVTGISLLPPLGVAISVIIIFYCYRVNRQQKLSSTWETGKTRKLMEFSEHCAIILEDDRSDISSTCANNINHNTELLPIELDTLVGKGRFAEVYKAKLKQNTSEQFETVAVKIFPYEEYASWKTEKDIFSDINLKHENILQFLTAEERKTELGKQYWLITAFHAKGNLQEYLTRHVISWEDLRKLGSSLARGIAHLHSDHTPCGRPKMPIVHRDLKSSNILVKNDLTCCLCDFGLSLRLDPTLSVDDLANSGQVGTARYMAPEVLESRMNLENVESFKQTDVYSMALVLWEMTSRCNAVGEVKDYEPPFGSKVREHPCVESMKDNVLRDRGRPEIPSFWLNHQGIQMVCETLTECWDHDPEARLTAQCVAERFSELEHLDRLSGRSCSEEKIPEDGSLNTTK
T2 sequence (P42685 whole entry): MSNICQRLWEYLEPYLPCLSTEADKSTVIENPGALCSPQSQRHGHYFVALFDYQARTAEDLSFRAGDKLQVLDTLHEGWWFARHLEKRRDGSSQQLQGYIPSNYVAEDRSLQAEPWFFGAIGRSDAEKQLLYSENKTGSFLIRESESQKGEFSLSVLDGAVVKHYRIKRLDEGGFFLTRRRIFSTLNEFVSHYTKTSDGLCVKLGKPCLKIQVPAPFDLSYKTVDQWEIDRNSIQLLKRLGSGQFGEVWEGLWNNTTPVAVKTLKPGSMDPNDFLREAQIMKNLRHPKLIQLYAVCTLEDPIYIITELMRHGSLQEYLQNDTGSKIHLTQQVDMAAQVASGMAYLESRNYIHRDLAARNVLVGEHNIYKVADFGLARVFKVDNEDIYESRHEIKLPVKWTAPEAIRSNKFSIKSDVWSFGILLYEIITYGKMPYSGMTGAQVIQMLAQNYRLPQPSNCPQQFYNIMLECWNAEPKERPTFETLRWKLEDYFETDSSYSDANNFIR

C=CC(=O)Nc1cc(-c2cc(-c3cc4c([nH]3)CCNC4=O)ccn2)ccc1OC(F)(F)F [compound 11]
inhibition at 0.01 µM ([1]; 10 nM): -11% | inhibition at 0.1 µM ([1]; 100 nM): 2% | inhibition at 1 µM ([1]; 1000 nM): 6% | inhibition at 0.01 µM ([2]; 10 nM): -7% | inhibition at 0.1 µM ([2]; 100 nM): 6% | inhibition at 1 µM ([2]; 1000 nM): 5% | inhibition at 0.01 µM ([3]; 10 nM): 3% | inhibition at 0.1 µM ([3]; 100 nM): 11% | inhibition at 1 µM ([3]; 1000 nM): 43% | inhibition at 0.01 µM ([4]; 10 nM): 1% | inhibition at 0.1 µM ([4]; 100 nM): -2% | inhibition at 1 µM ([4]; 1000 nM): 3% | inhibition at 0.01 µM ([5]; 10 nM): -4% | inhibition at 0.1 µM ([5]; 100 nM): 0% | inhibition at 1 µM ([5]; 1000 nM): 7%
